The record followed here is ChEMBL document CHEMBL1201862, “PubChem BioAssay data set” (2004).

Test systems include SR; HOP-92; HCT-116; SNB-19; LOX IMVI; OVCAR-5; A498; SW-620; NCI/ADR-RES; MDA-MB-231; K562; U-251; NCI-H23; SK-OV-3; M14; COLO 205; MOLT-4; HT-29; ACHN.
Common to all, as to test: DTP human tumour cell line panel, 48 h

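Cells were grown in 96-well plates and exposed to each compound for 48 hours at five concentrations; endpoints were interpolated linearly between bracketing concentrations, or set to the highest concentration if not reached. GI50 is the concentration that inhibits growth by half.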 The source made the active and inactive calls. No stated cut-off is given here; in the data, active = GI50 up to about 1.1 µM and inactive = higher.

What is called GI50 is the concentration at which growth is held to half of that of the control. As to `Clc1cccc(Cl)c1C1SCC2=Nc3ccccc3CN21` (stereo unspecified), the GI50 is 34.1 µM (inactive) in the assay with SR; 40.7 µM (inactive) in the assay with HOP-92; 12.1 µM (inactive) in the assay on HCT-116; 5.18 µM (inactive) with SNB-19; 19.1 µM (inactive) in the assay on LOX IMVI; 41.5 µM (inactive) with OVCAR-5. Also, the GI50 with A498 is 71.8 µM (inactive); in the assay with SW-620, 33.3 µM (inactive); in the assay with NCI/ADR-RES, 19.4 µM (inactive); in the assay with MDA-MB-231 it was 42.9 µM (inactive); in the assay with K562, 31.3 µM (inactive); in the assay with U-251, 33.2 µM (inactive). The GI50 was 14.6 µM (inactive) in the assay with NCI-H23; 20.6 µM (inactive) in the assay with SK-OV-3; 18.4 µM (inactive) in the assay on M14; 14.1 µM (inactive) in the assay on COLO 205; 31.3 µM (inactive) in the assay on MOLT-4.

As to `N=C(N)NC(CC(=O)O)c1ccccc1` (stereo unspecified), the GI50 with SR, in the assay with HOP-92, with HCT-116, with SNB-19, in the assay on LOX IMVI and in the assay with OVCAR-5 was > 100 µM (inactive) each time. Moreover, the GI50 in the assay with A498, in the assay on SW-620, in the assay on HT-29, in the assay on NCI/ADR-RES, in the assay on MDA-MB-231 and with K562 was > 100 µM (inactive) in each case. For the same compound, the GI50 with U-251, with ACHN, with NCI-H23, with SK-OV-3, with M14 and with COLO 205 was > 100 µM (inactive) each time.

With `Cc1cc(C)c2c(=O)cc(-c3ccccc3)[nH]c2c1`, the GI50 in the assay with SR is 2.01 µM (inactive); in the assay with HOP-92, 19.1 µM (inactive); in the assay with HCT-116, 0.889 µM (active); in the assay on SNB-19, 5.43 µM (inactive); in the assay on LOX IMVI it was 2.69 µM (inactive); with OVCAR-5, 10.4 µM (inactive). In addition, the GI50 with A498 was 1.35 µM (inactive); in the assay on SW-620, 0.738 µM (active); in the assay on HT-29, 1.17 µM (inactive); in the assay with NCI/ADR-RES, 1.61 µM (inactive); with MDA-MB-231, 8.22 µM (inactive); in the assay on K562, 0.57 µM (active). The GI50 in the assay with U-251 is 3.25 µM (inactive); in the assay with ACHN, 4.65 µM (inactive); in the assay on NCI-H23, 2.66 µM (inactive); in the assay on SK-OV-3, 2.52 µM (inactive); in the assay on M14, 3.37 µM (inactive); in the assay with COLO 205, 1.17 µM (inactive). For the same compound, the GI50 with MOLT-4 is 2.96 µM (inactive).

`c1ccc2c(c1)N=c1cc3c(cc1N2)=NC12CCCCC1CC1=C(CCCC1)N32` (stereo unspecified): the GI50 with SR is 0.425 µM (active); in the assay on HOP-92, 4.46 µM (inactive); in the assay on HCT-116, 3.24 µM (inactive); in the assay with SNB-19, 5.25 µM (inactive); in the assay with LOX IMVI, 3.57 µM (inactive); in the assay with OVCAR-5, 5.36 µM (inactive). Further, the GI50 was 6.52 µM (inactive) with A498; 5.47 µM (inactive) in the assay with SW-620; 3.18 µM (inactive) with HT-29; 4.57 µM (inactive) with NCI/ADR-RES; 4.16 µM (inactive) in the assay with MDA-MB-231; 2.2 µM (inactive) in the assay with K562. Besides, the GI50 is 5.16 µM (inactive) in the assay with U-251; 2.81 µM (inactive) in the assay on ACHN; 4.56 µM (inactive) in the assay with NCI-H23; > 10 µM (inactive) with SK-OV-3; 2.52 µM (inactive) in the assay on M14; 1.79 µM (inactive) in the assay with COLO 205. Further, the GI50 in the assay on MOLT-4 is 2.6 µM (inactive).

Consider `CCOC(=O)COc1cc(-c2ccccc2)nc2cc(F)ccc12`, for which the GI50 in the assay on SR is > 100 µM (inactive); with HOP-92, 52 µM (inactive); in the assay on HCT-116 it was > 100 µM (inactive); with LOX IMVI, > 100 µM (inactive); in the assay on OVCAR-5, > 100 µM (inactive); with A498 it was > 100 µM (inactive). The GI50 with SW-620, with HT-29, in the assay on NCI/ADR-RES, with MDA-MB-231, in the assay on K562 and in the assay on U-251 was > 100 µM (inactive) in each case. Besides, the GI50 in the assay on NCI-H23, with SK-OV-3, in the assay on M14, with COLO 205 and in the assay on MOLT-4 was > 100 µM (inactive) in each case.

With `COC(=O)[C@]1(C)CCC[C@@]2(C)C1CC[C@]13C=C(C(C)C)[C@H](CC21)CC3(Cl)C#N` (stereo partly specified), the GI50 is 32.1 µM (inactive) with SR; > 100 µM (inactive) with HOP-92; 14.9 µM (inactive) in the assay with HCT-116; > 100 µM (inactive) in the assay on SNB-19; > 100 µM (inactive) in the assay with OVCAR-5; > 100 µM (inactive) with A498. The GI50 in the assay on SW-620 is 37.6 µM (inactive); with HT-29, 27.4 µM (inactive); with NCI/ADR-RES, 57.7 µM (inactive); with MDA-MB-231, 42.2 µM (inactive); with K562, 19.5 µM (inactive); with U-251, 19.8 µM (inactive). Besides, the GI50 with ACHN was 43.9 µM (inactive); with NCI-H23, 59.8 µM (inactive); in the assay with SK-OV-3 it was > 100 µM (inactive); with M14, 38.4 µM (inactive); in the assay with COLO 205, 41.6 µM (inactive); in the assay with MOLT-4, 20 µM (inactive).

For `O=S(=O)(O)c1cc(S(=O)(=O)O)c2c(/N=N/c3ccc(/N=N/c4ccccc4)cc3)c(O)ccc2c1`, the GI50 in the assay with SR is > 100 µM (inactive); in the assay on HOP-92 it was > 100 µM (inactive); in the assay with HCT-116 it was > 100 µM (inactive); in the assay with SNB-19, > 100 µM (inactive); in the assay with OVCAR-5, > 100 µM (inactive); in the assay with A498, 52.1 µM (inactive). Moreover, the GI50 in the assay with SW-620, with HT-29, in the assay with NCI/ADR-RES, with MDA-MB-231, with K562 and with U-251 was > 100 µM (inactive) in each case. For the same compound, the GI50 in the assay on ACHN, in the assay on NCI-H23, in the assay with SK-OV-3, with M14, in the assay on COLO 205 and in the assay on MOLT-4 was > 100 µM (inactive) throughout.

With `N=C(N)NCC1CCCCCCN1` (stereo unspecified), the GI50 with SR, with HOP-92, in the assay with HCT-116, with SNB-19, in the assay with OVCAR-5 and with A498 was > 100 µM (inactive) each time. Also, the GI50 in the assay on SW-620, in the assay with HT-29, in the assay with NCI/ADR-RES, in the assay with MDA-MB-231, in the assay on K562 and in the assay on U-251 was > 100 µM (inactive) each time. Also, the GI50 with ACHN, with NCI-H23, with SK-OV-3, in the assay with M14, in the assay with COLO 205 and in the assay on MOLT-4 was > 100 µM (inactive) throughout.

For the compound `O=S(=O)(c1ccccc1)C1(CCC2OCCO2)C=CC2(CC1)OCCO2` (stereo unspecified), the GI50 with SR, with HOP-92, in the assay on HCT-116, in the assay with SNB-19, in the assay with OVCAR-5 and in the assay on A498 was > 100 µM (inactive) each time. For the same compound, the GI50 in the assay with SW-620, with HT-29, with NCI/ADR-RES, in the assay with MDA-MB-231, in the assay on K562 and in the assay with U-251 was > 100 µM (inactive) throughout. The GI50 in the assay with ACHN, in the assay with NCI-H23, with SK-OV-3, in the assay on M14, in the assay with COLO 205 and in the assay with MOLT-4 was > 100 µM (inactive) throughout.

As to `COc1cccc(C2SC(=N)Nc3c2c(C)nn3C(=O)c2ccccc2O)c1` (stereo unspecified), the GI50 in the assay on SR is > 3.21 µM (inactive); in the assay on HOP-92 it was > 2.08 µM (inactive); with HCT-116, > 2.14 µM (inactive); with SNB-19, > 10 µM (inactive); in the assay on LOX IMVI, > 4.26 µM (inactive); in the assay on OVCAR-5, > 6.73 µM (inactive). For the same compound, the GI50 in the assay on A498 is 7.78 µM (inactive); with SW-620, > 7.14 µM (inactive); with HT-29, > 6.17 µM (inactive); with NCI/ADR-RES, > 3.78 µM (inactive); with MDA-MB-231, > 4.62 µM (inactive); in the assay with U-251 it was > 2.65 µM (inactive). Besides, the GI50 in the assay with ACHN was 1.77 µM (inactive); with SK-OV-3, > 7.5 µM (inactive); in the assay with M14, > 5.47 µM (inactive); with COLO 205 it was > 6.4 µM (inactive); in the assay on MOLT-4 it was > 2.44 µM (inactive).

In the case of `CC1=NN(c2cccc(Cl)c2)C(=N/c2nc3ccccc3s2)/C1=C\c1cccs1`, the GI50 in the assay with SR was 19.5 µM (inactive); in the assay with HOP-92 it was 32.4 µM (inactive); in the assay with HCT-116, 44.8 µM (inactive); in the assay with LOX IMVI, 40.7 µM (inactive); in the assay with OVCAR-5 it was > 100 µM (inactive); with A498, 28.8 µM (inactive). In addition, the GI50 with SW-620 was 54.2 µM (inactive); in the assay on HT-29, 23.4 µM (inactive); in the assay with NCI/ADR-RES it was 20.9 µM (inactive); in the assay with MDA-MB-231, 38.9 µM (inactive); in the assay on K562, 32.7 µM (inactive); in the assay with U-251, 24 µM (inactive). The GI50 was 39 µM (inactive) with ACHN; 22.5 µM (inactive) with NCI-H23; 25.9 µM (inactive) in the assay with SK-OV-3; 70.1 µM (inactive) with M14; 26.8 µM (inactive) with MOLT-4.
